Where a name gives a salt, the structure may show the parent alone.
Tests used:
[1] = molecular target: T1, α4β1 integrin (Jurkat T-cell adhesion to IL-1 stimulated endothelial cell monolayers) (Homo sapiens, UniProt P05556+P13612); test: Jurkat-endothelial cell adhesion assay (Jurkat EC); assay type: cell-based; settings: Jurkat cells on IL-1 stimulated human umbilical vein endothelial cells; read-out: JK/EC (Jurkat EC Assay IC50 value range)
T1 construct: a T-cell line, Jurkat, known to express the α4β1 integrin; host or cells: Jurkat T-cell line
T1 sequence (P13612 34-1032): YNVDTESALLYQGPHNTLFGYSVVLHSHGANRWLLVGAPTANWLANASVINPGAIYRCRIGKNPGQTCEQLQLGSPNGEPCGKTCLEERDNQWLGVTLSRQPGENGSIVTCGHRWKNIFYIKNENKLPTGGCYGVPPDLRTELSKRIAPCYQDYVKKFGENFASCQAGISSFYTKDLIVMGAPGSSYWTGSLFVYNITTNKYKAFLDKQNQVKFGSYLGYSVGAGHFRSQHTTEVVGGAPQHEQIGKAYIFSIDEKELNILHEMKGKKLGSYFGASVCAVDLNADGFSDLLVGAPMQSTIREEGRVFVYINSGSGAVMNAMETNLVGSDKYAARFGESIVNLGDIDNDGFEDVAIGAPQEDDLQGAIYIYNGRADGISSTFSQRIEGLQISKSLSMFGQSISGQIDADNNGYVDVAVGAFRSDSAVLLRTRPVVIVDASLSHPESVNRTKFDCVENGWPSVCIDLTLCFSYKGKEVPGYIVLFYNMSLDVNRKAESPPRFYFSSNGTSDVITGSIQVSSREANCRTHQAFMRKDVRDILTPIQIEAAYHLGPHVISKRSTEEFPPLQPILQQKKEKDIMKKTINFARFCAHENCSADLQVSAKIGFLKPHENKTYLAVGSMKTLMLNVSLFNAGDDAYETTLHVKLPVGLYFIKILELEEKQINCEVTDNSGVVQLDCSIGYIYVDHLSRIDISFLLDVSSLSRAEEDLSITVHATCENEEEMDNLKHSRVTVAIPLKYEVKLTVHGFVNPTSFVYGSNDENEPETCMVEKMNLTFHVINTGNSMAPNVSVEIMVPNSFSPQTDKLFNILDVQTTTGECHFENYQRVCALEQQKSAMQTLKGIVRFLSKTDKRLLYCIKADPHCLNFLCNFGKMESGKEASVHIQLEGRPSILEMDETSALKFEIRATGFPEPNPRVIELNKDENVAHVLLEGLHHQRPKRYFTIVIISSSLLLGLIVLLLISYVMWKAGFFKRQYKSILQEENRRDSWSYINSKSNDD
T1 sequence (P05556 21-798): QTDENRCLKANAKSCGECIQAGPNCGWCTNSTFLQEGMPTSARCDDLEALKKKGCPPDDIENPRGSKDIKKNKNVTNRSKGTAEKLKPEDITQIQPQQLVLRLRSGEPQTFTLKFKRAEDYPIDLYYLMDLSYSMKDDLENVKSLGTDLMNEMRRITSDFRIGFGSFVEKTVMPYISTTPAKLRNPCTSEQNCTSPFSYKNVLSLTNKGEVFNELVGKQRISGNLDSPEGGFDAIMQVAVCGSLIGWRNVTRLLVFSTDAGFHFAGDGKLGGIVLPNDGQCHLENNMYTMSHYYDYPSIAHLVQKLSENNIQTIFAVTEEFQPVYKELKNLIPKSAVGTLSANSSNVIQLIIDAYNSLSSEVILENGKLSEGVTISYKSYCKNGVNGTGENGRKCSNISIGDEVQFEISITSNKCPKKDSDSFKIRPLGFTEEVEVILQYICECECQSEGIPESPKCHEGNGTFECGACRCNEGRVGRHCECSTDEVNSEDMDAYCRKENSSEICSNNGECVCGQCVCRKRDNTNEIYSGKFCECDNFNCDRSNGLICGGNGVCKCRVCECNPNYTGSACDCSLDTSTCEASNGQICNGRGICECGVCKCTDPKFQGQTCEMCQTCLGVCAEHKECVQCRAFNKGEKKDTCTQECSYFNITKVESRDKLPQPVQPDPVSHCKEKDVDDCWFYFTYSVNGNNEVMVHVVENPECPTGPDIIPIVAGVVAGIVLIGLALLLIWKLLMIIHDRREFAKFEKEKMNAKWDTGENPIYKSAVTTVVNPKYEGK
In short: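 Adhesion was expressed as percent of compound-free fluorescence after 20 min at 37° C (following 5 min settling on ice) of BCECF-loaded Jurkat T cells on washed HUVEC monolayers. The endothelium, passage 6 or lower, had received 0.1 ng/ml recombinant IL-1 for 4 hr at 37° C; compound was premixed with the T cells, typically at 100, 20, 5 and 1.25 μM.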

[2] = molecular target: T2, α4β1 integrin (Jurkat cell adhesion to immobilized CS-1 derived peptide CLHPGEILDVPST) (Homo sapiens, UniProt P05556+P13612); test: Jurkat-CS-1 assay; assay type: cell-based; settings: Jurkat cells on CS-1 peptide coated plates; read-out: JK/CS-1 (Jurkat CS-1 Assay IC50 value range)
T2 construct: 100 μl of Jurkat cells (2.5×10^6 cells/ml) in DMEM plus BSA; host or cells: Jurkat T-cell line
T2 sequence (P13612 34-1032): as the sequence (P13612 34-1032) above
T2 sequence (P05556 21-798): as the sequence (P05556 21-798) above
In short: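 CS-1 peptide was SPDP-crosslinked onto HSA-coated plates and blocked with BSA. Jurkat cells (2.5×10^6 cells/ml) in DMEM/BSA were mixed with compound, generally at 100, 20, 5 and 1.25 μM, and allowed to adhere for 1 hr at 37° C. Bound cells were fixed, stained with toluidine blue and quantified by OD590.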

## CC(C)(C)OC(=O)N1CC(C(=O)N[C@@H](Cc2ccc(NC(=O)c3c(Cl)cccc3Cl)cc2)C(=O)O)C1 [Example 146]
[1]
  IC50: ≥ 1000 nM
[2]
  IC50: ≥ 750 nM

## O=C(O)c1cncc(C(=O)N2CCCC(C(=O)N[C@@H](Cc3ccc(NC(=O)c4c(Cl)cccc4Cl)cc3)C(=O)O)C2)c1 (stereo partly drawn) [Example 207]
[1]
  IC50: ≥ 1000 nM
[2]
  IC50: 50 to 750 nM

## O=C(Nc1ccc(C[C@H](NC(=O)[C@@H]2CCCCN2C(=O)c2ccc([N+](=O)[O-])o2)C(=O)O)cc1)c1c(Cl)cccc1Cl [Example 191]
[1]
  IC50: ≥ 1000 nM
[2]
  IC50: 50 to 750 nM

## O=C(O)CCC1(CCC(=O)N[C@@H](Cc2ccc(OCc3c(Cl)cccc3Cl)cc2)C(=O)O)CCC(=O)N1 (stereo partly drawn) [Example 113, 2-[3-[[(1S)-1-Carboxy-2-[4-[(2,6-dichlorophenyl)methoxy]phenyl]ethyl]amino]-3-oxo-propyl]-5-oxo-2-pyrrolidinepropanoic Acid]
[1]
  IC50: ≥ 1000 nM
[2]
  IC50: 50 to 750 nM

## CC(C)(C)OC(=O)N1CSC[C@@H]1C(=O)N[C@@H](Cc1ccc(OCc2c(Cl)cccc2Cl)cc1)C(=O)O (relative stereo) [Example 33, [S-(R*,R*)]-4-[[[1-Carboxy-2-[4-[(2,6-dichlorophenyl)methoxy]phenyl]ethyl]amino]carbonyl]-3-thiazolidinecarboxylic Acid 3-(1,1-Dimethylethyl)ester]
[1]
  IC50: ≤ 250 nM
[2]
  IC50: 50 to 750 nM

## COC(=O)[C@H](Cc1ccc(NC(=O)c2c(Cl)cccc2Cl)cc1)NC(=O)[C@@H]1CSCCN1C(=O)CCc1nnn[nH]1 [Example 102, 4-[(2,6-Dichlorobenzoyl)amino]-N-[[(3R)-4-[1-oxo-3-(1H-tetrazol-5-yl)propyl]-3-thiomorpholinyl]carbonyl]-L-phenylalanine Methyl Ester]
[1]
  IC50: ≥ 1000 nM
[2]
  IC50: ≥ 750 nM

## O=C(O)c1cncc(C(=O)N2CCC(C(=O)N[C@@H](Cc3ccc(NC(=O)c4c(Cl)cccc4Cl)cc3)C(=O)O)CC2)c1 [Example 222]
[1]
  IC50: ≥ 1000 nM
[2]
  IC50: 50 to 750 nM

## O=C(Nc1ccc(C[C@H](NC(=O)[C@H]2CSCN2C(=O)OCC2c3ccccc3-c3ccccc32)C(=O)O)cc1)c1c(Cl)cccc1Cl (relative stereo) [Example 19]
[1]
  IC50: ≤ 250 nM
[2]
  IC50: 50 to 750 nM

## CC(c1ccccc1)N1C(C(=O)O)CC1C(=O)NC(Cc1ccc(NC(=O)c2c(Cl)cccc2Cl)cc1)C(=O)O (single isomer, unassigned) [Example 133]
[1]
  IC50: ≥ 1000 nM
[2]
  IC50: ≥ 750 nM

## O=C(Nc1ccc(C[C@H](NC(=O)[C@@H]2CCN2)C(=O)O)cc1)c1c(Cl)cccc1Cl [Example 144, N-[[(2S)-2-Azetidinyl]carbonyl]-4-[(2,6-dichlorobenzoyl)amino]-L-phenylalanine Trifluoroacetic acid Salt]
[1]
  IC50: ≥ 1000 nM
[2]
  IC50: 50 to 750 nM

## CCOC(=O)N1[C@@H](C(=O)N[C@@H](Cc2ccc(NC(=O)c3c(Cl)cccc3Cl)cc2)C(=O)O)C(C)(C)SC1(C)C (relative stereo) [Example 82, [S-(R*,R*)]-4-[[[1-Carboxy-2-[4-[(2,6-dichlorobenzoyl)amino]phenyl]ethyl]amino]carbonyl]-2,2,5,5-tetramethyl-3-thiazolidinecarboxylic Acid 3-Ethyl Ester]
[1]
  IC50: 250 to 1000 nM
[2]
  IC50: 50 to 750 nM

## CCOC(=O)N1CSC(C)(C)[C@@H]1C(=O)N[C@@H](Cc1ccc(NC(=O)c2c(Cl)cccc2Cl)cc1)C(=O)OC (relative stereo) [Example 30, [S-(R*,R*)]-4-[[[1-[[4-[(2,6-Dichlorobenzoyl)amino]phenyl]methyl]-2-methoxy-2-oxoethyl)amino]carbonyl]-5,5-dimethyl-3-thiazolidinecarboxylic Acid 3-Ethyl Ester]
[1]
  IC50: ≥ 1000 nM
[2]
  IC50: 50 to 750 nM

## CC(C)(C)OC(=O)N1CSC[C@@H]1C(=O)N[C@@H](Cc1ccc(OCc2c(Cl)cccc2Cl)c(Cl)n1)C(=O)O [Example 119, [S-(R*,R*)]-4-[[1-Carboxy-2-[[2-Chloro-3-[(2,6-dichlorophenyl)methoxy]-6-pyridyl]ethyl]amino]carbonyl]-3-thiazolidinecarboxylic Acid (1,1-Dimethylethyl)ester]
[1]
  IC50: ≥ 1000 nM
[2]
  IC50: ≥ 750 nM

## O=C(O)c1cccc(C(=O)N2CSC[C@@H]2C(=O)N[C@@H](Cc2ccc(NC(=O)c3c(Cl)cccc3Cl)cc2)C(=O)O)n1 [Example 264]
[1]
  IC50: ≤ 250 nM
[2]
  IC50: ≤ 50 nM

## O=C(Nc1ccc(C[C@H](NC(=O)[C@@H]2CSCN2C(=O)C2CCOC2)C(=O)O)cc1)c1c(Cl)cccc1Cl (stereo partly drawn) [Example 246]
[1]
  IC50: 250 to 1000 nM
[2]
  IC50: 50 to 750 nM

## O=C(Nc1ccc(C[C@H](NC(=O)[C@H]2CCCCN2C(=O)C2CCCO2)C(=O)O)cc1)c1c(Cl)cccc1Cl (stereo partly drawn) [Example 253]
[1]
  IC50: ≤ 250 nM
[2]
  IC50: 50 to 750 nM

## COC(=O)CCC1(CCC(=O)N[C@@H](Cc2ccc(NC(=O)c3c(Cl)cccc3Cl)cc2)C(=O)OC)CCC(=O)N1 (stereo partly drawn) [Example 114, 2-[3-[[(1S)-1-[[4-[(2,6-Dichlorobenzoyl)amino]phenyl]methyl]-2-methoxy-2-oxoethyl]amino]-3-oxopropyl]-5-oxo-2-pyrrolidinepropanoic Acid Methyl Ester]
[1]
  IC50: ≥ 1000 nM
[2]
  IC50: ≥ 750 nM

## O=C(Nc1ccc(C[C@H](NC(=O)[C@@H]2CSCN2)C(=O)O)cc1)c1c(Cl)cccc1Cl [Example 71, 4-[(2,6-Dichlorobenzoyl)amino]-N-[[(4R)-4-thiazolidinyl]carbonyl]-L-phenylalanine Monohydrochloride Salt]
[1]
  IC50: ≥ 1000 nM
[2]
  IC50: ≥ 750 nM

## COCCC(=O)N1CCC[C@@H]1C(=O)N[C@@H](Cc1ccc(NC(=O)c2c(Cl)cccc2Cl)cc1)C(=O)O [Example 256]
[1]
  IC50: ≤ 250 nM
[2]
  IC50: ≤ 50 nM

## O=C(O)CCC(=O)N1CCSCCC1C(=O)N[C@@H](Cc1ccc(NC(=O)c2c(Cl)cccc2Cl)cc1)C(=O)O (stereo partly drawn) [Example 267, 5-[[[(1S)-1-Carboxy-2-[4-[(2,6-dichlorobenzoyl)amino]phenyl]ethyl]amino]carbonyl]-tetrahydro-γ-oxo-1,4-thiazepine-4(5H)-butanoic Acid]
[1]
  IC50: ≥ 1000 nM
[2]
  IC50: 50 to 750 nM

## O=C(Nc1ccc(C[C@H](NC(=O)[C@@H]2CSCN2C(=O)C2NC(C(=O)O)CS2)C(=O)O)cc1)c1c(Cl)cccc1Cl (stereo partly drawn) [Example 244]
[1]
  IC50: 250 to 1000 nM
[2]
  IC50: 50 to 750 nM

## COC(=O)CCC(=O)N1[C@@H](C(=O)N[C@@H](Cc2ccc(NC(=O)c3c(Cl)cccc3Cl)cc2)C(=O)OC)C(C)(C)SC1(C)C (relative stereo) [Example 86, [S-(R*,R*)]-4-[[[1-[[4-[(2,6-Dichlorobenzoyl)amino]phenyl]methyl]-2-methoxy-2-oxoethyl]amino]carbonyl]-2,2,5,5-tetramethyl-γ-oxo-3-thiazolidinebutanoic Acid Methyl Ester]
[1]
  IC50: ≥ 1000 nM
[2]
  IC50: ≥ 750 nM

## COC(=O)[C@H](Cc1ccc(OCc2c(Cl)cccc2Cl)cc1)NC(=O)[C@H]1CSCN1S(C)(=O)=O [Example 50, O-[(2,6-Dichlorophenyl)methyl]-N-[[(4S)-3-(methylsulfonyl)-4-thiazolidinyl]carbonyl]-L-tyrosine Methyl Ester]
[1]
  IC50: ≥ 1000 nM
[2]
  IC50: 50 to 750 nM

## O=C(Nc1ccc(C[C@H](NC(=O)[C@@H]2CCCCN2C(=O)C2CCOC2)C(=O)O)cc1)c1c(Cl)cccc1Cl (stereo partly drawn) [Example 193]
[1]
  IC50: ≤ 250 nM
[2]
  IC50: 50 to 750 nM

## O=C(O)CC1(CC(=O)N2CCCC(C(=O)N[C@@H](Cc3ccc(NC(=O)c4c(Cl)cccc4Cl)cc3)C(=O)O)C2)CCCC1 (stereo partly drawn) [Example 195]
[1]
  IC50: ≥ 1000 nM
[2]
  IC50: 50 to 750 nM

## O=C(O)c1ccccc1C(=O)N1CCCC[C@H]1C(=O)N[C@@H](Cc1ccc(NC(=O)c2c(Cl)cccc2Cl)cc1)C(=O)O [Example 181]
[1]
  IC50: ≥ 1000 nM
[2]
  IC50: 50 to 750 nM

## O=C(O)c1cncc(C(=O)N2CCCC[C@H]2C(=O)N[C@@H](Cc2ccc(NC(=O)c3c(Cl)cccc3Cl)cc2)C(=O)O)c1 [Example 172, 5-[[(2S)-2-[[[(1S)-1-Carboxy-2-[4-[(2,6-dichlorobenzoyl)amino]phenyl]ethyl]amino]carbonyl]-1-piperidinyl]carbonyl]-3-pyridinecarboxylic Acid]
[1]
  IC50: ≤ 250 nM
[2]
  IC50: ≤ 50 nM

## O=C(Nc1ccc(C[C@H](NC(=O)[C@H]2CSCN2C(=O)c2cccnc2)C(=O)O)cc1)c1c(Cl)cccc1Cl [Example 265]
[1]
  IC50: ≤ 250 nM
[2]
  IC50: ≤ 50 nM

## O=C(Nc1ccc(C[C@H](NC(=O)[C@@H]2CCCCN2C(=O)C2NC(C(=O)O)CS2)C(=O)O)cc1)c1c(Cl)cccc1Cl (stereo partly drawn) [Example 190]
[1]
  IC50: 250 to 1000 nM
[2]
  IC50: 50 to 750 nM

## O=C(O)c1ccc2cc(C(=O)N3CCC[C@H]3C(=O)N[C@@H](Cc3ccc(NC(=O)c4c(Cl)cccc4Cl)cc3)C(=O)O)ccc2c1 [Example 236]
[1]
  IC50: ≥ 1000 nM
[2]
  IC50: ≥ 750 nM

## O=C(O)c1cncc(C(=O)N2CCC[C@@H]2C(=O)N[C@@H](Cc2ccc(NC(=O)c3c(Cl)cccc3Cl)cc2)C(=O)O)c1 [Example 257]
[1]
  IC50: 250 to 1000 nM
[2]
  IC50: 50 to 750 nM

## COC(=O)[C@H](Cc1ccc(NC(=O)c2c(Cl)cccc2Cl)cc1)NC(=O)[C@H]1CSCN1S(C)(=O)=O [Example 2, 4-[(2,6-Dichlorobenzoyl)amino]-N-[[(4S)-3-(methylsulfonyl)-4-thiazolidinyl]carbonyl]-L-phenylalanine Methyl Ester]
[1]
  IC50: ≤ 250 nM
[2]
  IC50: 50 to 750 nM

## O=C(O)CNC(=O)N1CCC[C@H]1C(=O)N[C@@H](Cc1ccc(NC(=O)c2c(Cl)cccc2Cl)cc1)C(=O)O [Example 232]
[1]
  IC50: ≥ 1000 nM
[2]
  IC50: ≥ 750 nM
